Data: paper PMC7235904, “Is Blood a Good Indicator for Detecting Antimicrobials in Meat? Evidence for the Development of In Vivo Surveillance Methods” (Antibiotics, 2020)
Like-named read-outs stand apart in the source and are kept apart here. Marks after values point to notes of the source that are not given here.

Legend:
[1] = Antimicrobial residue concentration and depletion in blood (serum) of treated pigs within the withdrawal period (LC-MS/MS); format: in vivo; details: for half-life: both sexes, intramuscular, T1/2=Ln(2)/λz, read-out: T1/2 half-life of elimination (BLOOD) (converted); for half-life / Slope (BLOOD): pig blood serum; for Maximum concentration value in Blood / Minimum concentration value in Blood: over the sample bank of treated piglets; for Slope (BLOOD): regression of concentration over the withdrawal period, deep intramuscular treatment; for Time until levels reached the detection limit (DL) in blood: DL 10 µg/kg
Source text: To obtain samples containing antimicrobial compounds administered in vivo, 93 piglets (62 female, 31 male) with an average weight of 43.00 ± 12.79 kg were provided at treatment onset. These piglets were untreated animals that remained on the premises of the Faculty of Veterinary Sciences at the University of Zaragoza (Zaragoza, Spain) 40 days before administration of the compounds. Both during the acclimatization and withdrawal periods, animals were fed ad libitum with a special mixed feed that was free of antibiotics ([…], Spain), and water was provided from a separated, controlled water circuit. Piglets were raised in separate pens depending on the antibiotic administrated. After administration, animals were slaughtered at preset intervals within the withdrawal period in order to obtain samples containing different antimicrobial concentrations above and below the MRLs for muscle. Figure S1 indicates the slaughter days and the withdrawal periods set by the manufacturer for each antimicrobial compound administered. Between one and three piglets were slaughtered on the same day post-administration. The day of slaughter was calculated from the first day after the last antimicrobial treatment dose. […] Apart from samples containing antimicrobial compounds administered in vivo, and as a part of the sample bank, 15 of the 93 piglets were slaughtered after the acclimatization period and before treatment onset. Animals were stunned and slaughtered following the guidelines established by European Council Regulation (EC) No. 1099/2009 [39] regarding the protection of animals at the time of slaughter or killing. A penetrative captive bolt gun was used to stun the pigs, positioning it firmly against the skin, in the middle of the forehead, 2 cm above the line of the eyes, aiming towards the tail. This was followed by complete exsanguination carried out by incision in the jugular furrow at the base of the neck to sever all the major blood vessels arising from the heart. The samples obtained from them were used as blank samples for analysis. Blood was collected not only from slaughtered animals, but also from living animals on each day of slaughter. […] For quinolones in blood serum samples, a LC-MS/MS method was set up using a SCIEX Exion LC coupled to TripleQuad 6500+ triple quadrupole detector equipped with an Acquity Ultra Performance Liquid Chromatography Ethylene Bridged Hybrid (UPLC BEH) C18 (1.7 μm, 2.1 × 100 mm) column. Mobile phase consisted of eluent A: 0.1% formic acid in water, and eluent B: 0.1% formic acid in acetonitrile at a flow rate of 0.4 mL/min. […] Injected volume was 5 μL. Analytes were detected using positive electrospray ionization (ESI+) in multiple reaction monitoring (MRM) mode, and two transitions were monitored for each compound of interest (Table S4). […] The same mobile phase and gradient conditions as in SCIEX instruments were applied. […] Two ESI+ MRM transitions were monitored for each compound (Table S5). […] Results were represented as the mean ± standard deviation using the PRISM program (GraphPad Software, Inc., San Diego, USA). The rates of elimination (λz) of antibiotics from muscle and blood were determined by regression analysis. The corresponding half-lives of elimination were calculated according to the following equation: Half-life of elimination.

[2] = cited from earlier work; for Suppression Period (withdrawal period set by the manufacturer): commercial product, deep intramuscular, ref manufacturer; for MRLs: muscle, ref Regulation (EEC) No. 2377/90
[3] = design: method as in earlier work; details: cited from earlier work
[4] = Antimicrobial residue concentration and depletion in muscle of treated pigs within the withdrawal period (LC-MS/MS or HPLC-FLD); format: in vivo; details: for half-life: both sexes, T1/2=Ln(2)/λz, read-out: T1/2 half-life of elimination (MUSCLE) (converted); for half-life / concentration at 4 day of withdrawal period / concentration at 7 day of withdrawal period / concentration at 15 day of withdrawal period / concentration at 2 day of withdrawal period / concentration at 3 day of withdrawal period: intramuscular; for concentration at 4 day of withdrawal period: withdrawal period Day 4, pig; for concentration at 7 day of withdrawal period: withdrawal period Day 7, pig; for concentration at 15 day of withdrawal period: withdrawal period Day 15, pig; for Maximum concentration value in Muscle / Minimum concentration value in Muscle: over the sample bank of treated piglets; for Time until levels reached the detection limit (DL) in muscle: DL 10 µg/kg; for Slope (MUSCLE): regression of concentration over the withdrawal period, deep intramuscular treatment; for concentration at 2 day of withdrawal period: withdrawal period Day 2, pig; for concentration at 3 day of withdrawal period: withdrawal period Day 3, pig
Source text: To obtain samples containing antimicrobial compounds administered in vivo, 93 piglets (62 female, 31 male) with an average weight of 43.00 ± 12.79 kg were provided at treatment onset. These piglets were untreated animals that remained on the premises of the Faculty of Veterinary Sciences at the University of Zaragoza (Zaragoza, Spain) 40 days before administration of the compounds. Both during the acclimatization and withdrawal periods, animals were fed ad libitum with a special mixed feed that was free of antibiotics ([…], Spain), and water was provided from a separated, controlled water circuit. Piglets were raised in separate pens depending on the antibiotic administrated. After administration, animals were slaughtered at preset intervals within the withdrawal period in order to obtain samples containing different antimicrobial concentrations above and below the MRLs for muscle. Figure S1 indicates the slaughter days and the withdrawal periods set by the manufacturer for each antimicrobial compound administered. Between one and three piglets were slaughtered on the same day post-administration. The day of slaughter was calculated from the first day after the last antimicrobial treatment dose. […] Apart from samples containing antimicrobial compounds administered in vivo, and as a part of the sample bank, 15 of the 93 piglets were slaughtered after the acclimatization period and before treatment onset. Animals were stunned and slaughtered following the guidelines established by European Council Regulation (EC) No. 1099/2009 [39] regarding the protection of animals at the time of slaughter or killing. A penetrative captive bolt gun was used to stun the pigs, positioning it firmly against the skin, in the middle of the forehead, 2 cm above the line of the eyes, aiming towards the tail. This was followed by complete exsanguination carried out by incision in the jugular furrow at the base of the neck to sever all the major blood vessels arising from the heart. The samples obtained from them were used as blank samples for analysis. […] Samples were immediately frozen at -20 °C until analysis. For HPLC-FLD analyses, matrix solid phase dispersion (MSPD) was used. A total of 1.00 ± 0.01 g of tissue was weighed. Internal quality control samples were spiked at this point. […] It was introduced into a 25 mL reservoir and compacted. Clean-up was made with 8 mL of hexane, and quinolones were eluted with 15 mL acetonitrile/methanol (1:1) acidified with acetic acid 1%. […] The extraction procedure for LC-MS/MS determination was based on Chico et al.. […] All samples were spiked with IS at this point, and calibrants and internal quality control samples were prepared by spiking the corresponding amount of standard working solution. A total of 200 μL of 0.1 M EDTA was added, followed by 10 mL of 70% methanol, and samples were vortexed for 30 s, swung for 15 min, and finally centrifuged at 4500 rcf for 10 min at a temperature below 10 °C (Heraeus Multifuge X3 FR, Heraeus, Hanau, Germany). Then, 500 μL of supernatant was collected and diluted by adding 1500 μL of water. Extracts were filtered through 0.2 μm pore filters directly into LC-MS/MS vials. […] Mobile phase consisted of eluent A: phosphoric acid with trimethylamine buffer (pH = 3), and eluent B: acetonitrile, in isocratic mode (21:79) with a flow rate of 1 mL/min. Injected volume was 50 μL. […] The same mobile phase and gradient conditions as in SCIEX instruments were applied. Injected volume was 10 μL. Two ESI+ MRM transitions were monitored for each compound (Table S5). […] Results were represented as the mean ± standard deviation using the PRISM program (GraphPad Software, Inc., San Diego, USA). The rates of elimination (λz) of antibiotics from muscle and blood were determined by regression analysis. […]

[5] = forequarter muscle, read-out: Concentration in Forequarters
[6] = hindquarter muscle, read-out: Concentration in Hindquarters
[7] = loin muscle, read-out: Concentration in Loins

SMILES | half-life [1] [h] | Maximum concentration value in Blood [1] [µg/kg] | Minimum concentration value in Blood [1] [µg/kg] | Slope (BLOOD) [1] | Time until levels reached the detection limit (DL) in blood ([1]; pig blood) [days after inoculation] | Suppression Period (withdrawal period set by the manufacturer) [2] [days] | MRLs [2] [µg/kg] | half-life ([4]; pig muscle) [h] | Maximum concentration value in Muscle [4] [µg/kg] | Minimum concentration value in Muscle [4] [µg/kg] | Time until levels reached the detection limit (DL) in muscle ([4]; pig muscle) [days after inoculation] | Slope (MUSCLE) ([4]; pig muscle) | concentration at 2 day of withdrawal period [4, 5] [ng/g] | concentration at 2 day of withdrawal period [4, 6] [ng/g] | concentration at 2 day of withdrawal period [4, 7] [ng/g] | other results
CN(C)[C@@H]1C(O)=C(C(N)=O)C(=O)[C@@]2(O)C(O)=C3C(=O)c4c(O)cccc4[C@@](C)(O)[C@H]3[C@H](O)[C@@H]12 [Oxytetracycline, oxytetracycline] | 86.2 | 615.00 ± 204.47 | 24.00 ± 1.73 | −0.08879 ± 0.007069 ^a | 25 | 28 | 100 | 82.3 | 1005.33 ± 55.47 | 31.33 ± 3.21 | 26 | −0.08784 ± 0.005403 ^a |  |  |  | Share of the dose eliminated in the feces [3]: 40%; Share of the dose eliminated in urine via glomerular filtration [3]: 60%; concentration at 4 day of withdrawal period [4, 5]: 971 ± 53.3 ng/g; concentration at 7 day of withdrawal period [4, 5]: 411 ± 27.5 ng/g; concentration at 15 day of withdrawal period [4, 5]: 99.7 ± 6.51 ng/g; concentration at 4 day of withdrawal period [4, 6]: 1010 ± 55.5 ng/g; concentration at 7 day of withdrawal period [4, 6]: 383 ± 45.9 ng/g; concentration at 15 day of withdrawal period [4, 6]: 100 ± 16 ng/g; concentration at 4 day of withdrawal period [4, 7]: 905 ± 118 ng/g; concentration at 7 day of withdrawal period [4, 7]: 383 ± 12.9 ng/g; concentration at 15 day of withdrawal period [4, 7]: 125 ± 15.7 ng/g
CCN1CCN(c2cc3c(cc2F)c(=O)c(C(=O)O)cn3C2CC2)CC1 [Enrofloxacin, enrofloxacin] | 45.6 | 448.50 ± 2.12 | 21.67 ± 1.15 | −0.2213 ± 0.01639 ^b | 8 |  |  | 22.1 | 1858.00 ± 156.37 | 18.00 ± 2.65 | 7 | −0.3289 ± 0.01929 ^a | 374 ± 4.73 | 387 ± 8.5 | 383 ± 2 | concentration at 3 day of withdrawal period [4, 5]: 990.5 ± 3.54 ng/g; concentration at 3 day of withdrawal period [4, 6]: 1075 ± 1.41 ng/g; concentration at 3 day of withdrawal period [4, 7]: 1060 ± 2.12 ng/g
CC1(C)S[C@@H]2[C@H](NC(=O)[C@H](N)c3ccc(O)cc3)C(=O)N2[C@H]1C(=O)O [Amoxicillin, amoxicillin] |  | 73.00 ± 6.24 | 19.00 ± 1.00 |  |  | 25 | 50 |  | 307.00 ± 10.39 | 13.33 ± 2.52 |  |  | 20.7 ± 1.15 | 25.3 ± 6.43 | 149 ± 8.54 | Time at which blood amounts were close to the MRL ([1]; pig blood, MRL 50 µg/kg): first day of the withdrawal period; Concentration in loins compared with forequarters and hindquarters ([4]; pig muscle groups, Table S1): over seven times higher; Time at which muscle amounts were close to the MRL ([4]; pig muscle, MRL 50 µg/kg): first day of the withdrawal period
